Measurements from US20240415790A1, “A COMPOSITION FOR USE IN THE TREATMENT OF INTERVERTEBRAL DISC HERNIATION” (STAYBLE THERAPEUTICS AB, priority 2020, published 2024).

Tests used:
[1] = tested on: patients with chronic discogenic low back pain; assay: Randomized placebo-controlled single ascending dose study, safety and tolerability of intradiscal injection; assay type: in vivo, human
From the text: The study was a randomized, double-blinded, placebo-controlled, single ascending dose study with the primary objective to evaluate safety and tolerability following intradiscal injection of LA in Omnipaque or placebo (Omnipaque) in 15 patients with chronic discogenic low back pain. The secondary objective was to assess effects on the NP and disc height using T2-weighted MRI. […] Prior to dose escalation, the safety review committee assessed all safety data up to Visit 3 (1 week after treatment). In case of any safety or tolerability concerns, dosing could be discontinued, or the planned dose could be lowered. The test product in this study was containing the active ingredient (S)-LA, which was provided to the site as a sterile solution in a syringe for single use. The LA doses administered were 45, 90 and 180 mg in a volume of 1.5 mL, corresponding to LA concentrations of 30, 60 and 120 mg/mL. The formulation for administration was prepared extempore and contained the contrast agent iohexol (Omnipaque™) and water for injection. The final concentration of iohexol in the injected solution was 388 mg/mL. Small amounts of tromethamine, Na2Ca edetate and HCl were also present. The solution was clear and colourless to slightly coloured. At the treatment day, patients received premedication with a sedative or anxiolytic and antibiotics, given as an i.v. infusion approximately 15 min before the intradiscal injection. The patient was placed in the right lateral decubitus position and injection was done using the two-needle technique under fluoroscopy guidance. Once correct intradiscal needle placement had been confirmed, a small volume (approximately 0.5 mL) of the formulation was first injected slowly (during half a minute) to verify that the distribution of the injectate was confined to the disc and that there was no leakage. If no leakage had occurred within half a minute, this procedure was repeated twice until the entire volume (1.5 mL) had been injected. If there was any leakage from the disc during injection, either after injection of a small volume or the entire volume (1.5 mL), the injection was interrupted. […] All patients stayed overnight at the clinic after the injection, for observation and safety assessments. After leaving the clinic, patients were to be treated with analgesics and/or other measures according to standard clinical practice. They were also given advice on restricted physical activity during the first week. Physical examination, blood pressure, heart rate, electrocardiogram (ECG), clinical chemistry and hematology were assessed using routine clinical methods. Pain during and 15 min after injection was measured using a VAS scale (0-100 mm) and the patient reported whether or not the pain reproduced the pain normally experienced in terms of location and type of pain. The distribution of Omnipaque within the IVD was documented according to the Dallas discogram scale. Local site reactions to the injection were noted, and AEs were graded for seriousness, intensity, and causality to the treatment. SAEs were defined according to the International Conference of Harmonisation guideline E2A.

collagen II = assay: Immunohistochemical analysis of collagen II in porcine IVD; assay type: in vivo; settings: pig, LA 60 mg/mL, treated vs untreated IVDs
Method: Since effects of LA on the NP in the subsequent clinical study was planned to be assessed using MRI, the third series focused on the effects of LA (0.2 mL, 60 mg/mL) on sclerotization as measured by T2-weighted MRI. In addition, effects of LA on the expression of collagen I and II were studied by immunohistochemistry (IHC). The macroscopic changes after LA at 60 mg/mL were similar to those described above. The tissue was dehydrated in graded ethanol and embedded in paraffin. Sections were cut on a microtome, dewaxed, and incubated with polyclonal primary antibodies against collagen I (Abcam 34710) or II (Abcam 34712). The antibodies were diluted 250 (collagen I) or 200 (collagen II) times in phosphate-buffered saline containing 1% bovine serum albumin. Incubation was done at room temperature for 60 min. The sections were then incubated for 30 min at room temperature with horseradish peroxidase-conjugated secondary antibodies (Mach 2 Uni HRP, Biocare Medical) and immunoreactivity was visualized using diaminobenzidine (Biocare Medical).

CC(O)C(=O)O (centres unmarked) [LA, lactic acid]
Adverse events by causality, Possible, m number of events ([1]; LA 30 mg/ml (n = 3)): 0 | Adverse events by causality, Possible, n (%) number of patients ([1]; LA 30 mg/ml (n = 3)): 0 | Adverse events by causality, Probable, m number of events ([1]; LA 30 mg/ml (n = 3)): 1 | Adverse events by causality, Probable, n (%) number of patients ([1]; LA 30 mg/ml (n = 3)): 1 (33%) | Adverse events by causality, Unlikely, m number of events ([1]; LA 30 mg/ml (n = 3)): 3 | Adverse events by causality, Unlikely, n (%) number of patients ([1]; LA 30 mg/ml (n = 3)): 2 (67%) | Adverse events by severity, Mild, m number of events ([1]; LA 30 mg/ml (n = 3)): 2 | Adverse events by severity, Mild, n (%) number of patients ([1]; LA 30 mg/ml (n = 3)): 1 (33%) | Adverse events by severity, Moderate, m number of events ([1]; LA 30 mg/ml (n = 3)): 2 | Adverse events by severity, Moderate, n (%) number of patients ([1]; LA 30 mg/ml (n = 3)): 1 (33%) | Adverse events by severity, Severe, m number of events ([1]; LA 30 mg/ml (n = 3)): 0 | Adverse events by severity, Severe, n (%) number of patients ([1]; LA 30 mg/ml (n = 3)): 0 | Any adverse event, m number of events ([1]; LA 30 mg/ml (n = 3)): 4 | Any adverse event, n (%) number of patients ([1]; LA 30 mg/ml (n = 3)): 2 (67%) | Any serious adverse event, m number of events ([1]; LA 30 mg/ml (n = 3)): 0 | Any serious adverse event, n (%) number of patients ([1]; LA 30 mg/ml (n = 3)): 0 | Adverse events by causality, Possible, m number of events ([1]; LA 60 mg/ml (n = 3)): 0 | Adverse events by causality, Possible, n (%) number of patients ([1]; LA 60 mg/ml (n = 3)): 0 | Adverse events by causality, Probable, m number of events ([1]; LA 60 mg/ml (n = 3)): 3 | Adverse events by causality, Probable, n (%) number of patients ([1]; LA 60 mg/ml (n = 3)): 3 (100%) | Adverse events by causality, Unlikely, m number of events ([1]; LA 60 mg/ml (n = 3)): 0 | Adverse events by causality, Unlikely, n (%) number of patients ([1]; LA 60 mg/ml (n = 3)): 0 | Adverse events by severity, Mild, m number of events ([1]; LA 60 mg/ml (n = 3)): 1 | Adverse events by severity, Mild, n (%) number of patients ([1]; LA 60 mg/ml (n = 3)): 1 (33%) | Adverse events by severity, Moderate, m number of events ([1]; LA 60 mg/ml (n = 3)): 2 | Adverse events by severity, Moderate, n (%) number of patients ([1]; LA 60 mg/ml (n = 3)): 2 (67%) | Adverse events by severity, Severe, m number of events ([1]; LA 60 mg/ml (n = 3)): 0 | Adverse events by severity, Severe, n (%) number of patients ([1]; LA 60 mg/ml (n = 3)): 0 | Any adverse event, m number of events ([1]; LA 60 mg/ml (n = 3)): 3 | Any adverse event, n (%) number of patients ([1]; LA 60 mg/ml (n = 3)): 3 (100%) | Any serious adverse event, m number of events ([1]; LA 60 mg/ml (n = 3)): 0 | Any serious adverse event, n (%) number of patients ([1]; LA 60 mg/ml (n = 3)): 0 | Adverse events by causality, Possible, m number of events ([1]; LA 120 mg/ml (n = 3)): 1 | Adverse events by causality, Possible, n (%) number of patients ([1]; LA 120 mg/ml (n = 3)): 1 (33%) | Adverse events by causality, Probable, m number of events ([1]; LA 120 mg/ml (n = 3)): 4 | Adverse events by causality, Probable, n (%) number of patients ([1]; LA 120 mg/ml (n = 3)): 2 (67%) | Adverse events by causality, Unlikely, m number of events ([1]; LA 120 mg/ml (n = 3)): 3 | Adverse events by causality, Unlikely, n (%) number of patients ([1]; LA 120 mg/ml (n = 3)): 2 (67%) | Adverse events by severity, Mild, m number of events ([1]; LA 120 mg/ml (n = 3)): 6 | Adverse events by severity, Mild, n (%) number of patients ([1]; LA 120 mg/ml (n = 3)): 3 (100%) | Adverse events by severity, Moderate, m number of events ([1]; LA 120 mg/ml (n = 3)): 2 | Adverse events by severity, Moderate, n (%) number of patients ([1]; LA 120 mg/ml (n = 3)): 1 (33%) | Adverse events by severity, Severe, m number of events ([1]; LA 120 mg/ml (n = 3)): 0 | Adverse events by severity, Severe, n (%) number of patients ([1]; LA 120 mg/ml (n = 3)): 0 | Any adverse event, m number of events ([1]; LA 120 mg/ml (n = 3)): 8 | Any adverse event, n (%) number of patients ([1]; LA 120 mg/ml (n = 3)): 3 (100%) | Any serious adverse event, m number of events ([1]; LA 120 mg/ml (n = 3)): 0 | Any serious adverse event, n (%) number of patients ([1]; LA 120 mg/ml (n = 3)): 0 | Safety and tolerability of the treatment ([1]; patients, intradiscal 45-180 mg): safe and tolerable | Collagen II immunoreactivity (collagen II): no clear difference
